The source of these data is article PMC7555970, “Design, Synthesis and Biological Evaluation of Biphenylglyoxamide-Based Small Molecular Antimicrobial Peptide Mimics as Antibacterial Agents” (International Journal of Molecular Sciences, 2020).

In assay [1] the test system is S. aureus (SA38). The settings on record: cited from earlier work.
Assay [2] concerns P. aeruginosa (PA01). To be noted: cited from earlier work.
In assay [3] the test system is E. coli (K12). The settings on record: cited from earlier work.
Assay [4] relates to S. aureus (SA38). Kind of assay: Minimum inhibitory concentration (MIC) assay against S. aureus. The format is cell-based, Staphylococcus aureus. The settings on record: Staphylococcus aureus. As for the experimental part:
(§1) The antimicrobial activity of the compounds was evaluated by MIC assay using the procedure described by Clinical and Laboratory Standards Institute (CLSI). A single colony of bacteria was cultured overnight in trypticase soy broth (TSB; Oxoid, Basingstoke, UK) at 37 °C with shaking. The resulting bacterial culture was collected by centrifugation and resuspended in TSB twice. The optical density (OD) of the resulting culture was adjusted to OD660 = 0.1 in TSB (which is equivalent to 10^8 colony forming unit (CFU)/mL bacteria). It was further diluted to 10^6 CFU/mL in TSB. 100 µL of the bacterial solution was then added to wells of a 96-well plate (Costar; Sigma-Aldrich, St Louis, MO, USA) containing 100 µL serially diluted peptide mimic, with final concentration ranging from 1 to 250 µM. Wells with bacteria but no compound were used as negative control while wells with only media were set as blank. The plates were then wrapped with parafilm to prevent evaporation and incubated with shaking at 120 rpm at 37 °C for 18–24 h, and the data were recorded by measuring the OD value at 660 nm using a FLUOstar Omega (BMG Labtech, Mornington, Victoria, Australia) microplate reader. […] Each experiment was performed in triplicate and was repeated in three independent experiments.

Assay [5] concerns P. aeruginosa (PA01). The assay is described as follows: Minimum inhibitory concentration (MIC) assay against P. aeruginosa. The format is cell-based. To be noted: Pseudomonas aeruginosa. The protocol: as §1
The subject of assay [6] is E. coli (K12). Kind of assay: Minimum inhibitory concentration (MIC) assay against E. coli. The assay is classed as cell-based. The settings on record: Escherichia coli. The protocol:
as §1

Assay [7] deals with established S. aureus biofilms. Kind of assay: Biofilm disruption assay (crystal violet staining), S. aureus. The assay is classed as cell-based, Staphylococcus aureus. The settings on record: 24 h treatment. As for the experimental part: (§2) Bacterial cultures (S. aureus and E. coli) were grown in Muller Hinton broth (MHB; Oxoid, Basingstoke, UK) media overnight at 37 °C with shaking at 120 rpm. Cultures were diluted (1:20) in MHB medium and 200 µL aliquots were dispensed to wells in a flat bottom 96-well plate (Costar; Sigma-Aldrich, St Louis, MO, USA). Biofilm was then grown in the 96-well plate at 37 °C overnight. After that, loosely bound cells were washed away with 1x phosphate-buffered saline (PBS) and cultures were then supplemented with different concentrations of test compounds dissolved in DMSO and incubated for a further 24 h with shaking at 120 rpm. Biofilms adhered on the plate substratum were quantified using crystal violet staining as described previously. The experiment was performed in triplicate.

Assay [8] is described as follows: Tethered bilayer lipid membranes (tBLMs) assay, zwitterionic membrane. The settings on record: for changes of membrane conduction: zwitterionic membrane, higher concentrations (1–100 μM). As for the experimental part: (§3) Changes in membrane conduction and capacitance were measured using tethered bilayer lipid membranes (tBLMs) in association with AC electrical impedance spectroscopy techniques. Sparsely tethered tBLMs were prepared using a zwitterionic 1-palmitoyl-2-oleoyl-glycero-3-phosphocholine (POPC) (Avanti Lipids, USA) or a mixture of 30% palmitoyl-oleoyl-phosphatidylglycerol (POPG) (Avanti Lipids, USA) lipids with 70% POPC in order to create a negatively charged tBLM [66, 67]. To do this, gold-patterned polycarbonate slides were coated with tethered benzyl-disulfide (tetra-ethyleneglycol) n = 2 C20-phytanyl tethers:benzyl-disulfide-tetra-ethyleneglycol-OH spacers in the ratio of 1:10 (SDx Tethered Membranes Pty Ltd., Australia). A 3 mM solution of a mobile lipid phase POPC, or a 3 mM solution of mobile phase POPC/POPG (70:30), (Avanti Lipids, USA) in 100% ethanol was then incubated with the tethering chemistries. Lipids were left to incubate with the tethering chemistries for 2 min before being washed with 3 × […] of phosphate-buffered saline (PBS). Prior to the addition of the compounds, membrane stability was confirmed by 5 × 100 µL washes of the PBS vehicle. AC electrical impedance spectrometry (EIS) was then used to monitor any changes in membrane impedances as a result of adding the test compounds in increasing concentrations.
(§4) For EIS measures, a 50 mV peak-to-peak AC excitation from 0.1 to 2000 Hz with four steps per decade were recorded using a TethaPod™ operated with TethaQuick™ software (SDx Tethered Membranes Pty Ltd., Australia). The data were fitted to an equivalent circuit consisting of a Constant Phase Element (CPE), to represent the imperfect capacitance of the gold tethering electrode, in series with a Resistor/Capacitor network to represent the lipid bilayer membrane. Fitting of the phase and impedance data to the equivalent circuit was completed with a proprietary adaptation of a Lev Mar fitting routine. To account for variations in basal membrane conditions, data are normalised to a baseline conduction and capacitance values directly before the addition of each compound.

Assay [9] is described as follows: Tethered bilayer lipid membranes (tBLMs) assay, negatively charged membrane. To be noted: for changes of membrane conduction: negatively charged membranes, higher concentrations (1–100 μM), compared to zwitterionic. The protocol:
as §3, §4

In assay [10] the test system is MRC-5 normal human lung fibroblasts. Kind of assay: MTT toxicity assay. The format is cell-based. The settings on record: Homo sapiens, MRC5, 72 h, 72 h drug incubation, read-out: IC50 against MRC-5 normal human lung fibroblasts. The protocol: The toxicity of the compounds was measured using an MTT (3-(4,5-dimethylthiazol-2-yl)-2,5-diphenyltetrazolium bromide) (Sigma Aldrich, St Louis, MO, USA) colorimetric assay against normal human lung fibroblasts MRC-5 cells. The cells were cultured in minimal essential medium (MEM; Sigma Aldrich, St Louis, MO, USA) containing 10% foetal bovine serum (FBS). The cells were maintained at 37 °C in 5% CO2 as an adherent monolayer and was passaged upon reaching confluence by standard cell culture techniques. MRC-5 cells were seeded at 5000 cells/well in 96-well plates to ensure full confluence (quiescence) and left overnight to adhere to the plate wells. The adherent cells were treated with 1–500 µM of compounds by dissolving in DMSO and serially diluting with media. The final concentration of DMSO was 0.5% (v/v). After 72 h drug incubation, […] stock MTT solution (5 mg/mL) was added and the cells were incubated for another 3.5–4 h. MTT solution-containing media was carefully aspirated without displacing the purple crystals from the bottom and […] acid-isopropanol was added to all wells and mixed slowly by shaking with an orbital shaker to dissolve the dark blue crystals. The metabolic activity was detected by spectrophotometric analysis by assessing the read absorbance (590/620 nm) on an EnSight plate reader (PerkinElmer, Waltham, MA, USA) and cell viability was expressed as a percentage of untreated control cells. The determination of IC50 values was performed using GraphPad Prism 6 (GraphPad, San Diego, CA, USA). Each experiment was performed in triplicate and was repeated in three independent experiments.
Background: Formazan colour is commonly taken as a measure of viable cells.

Assay [11] concerns preformed E. coli biofilm. The assay is described as follows: Biofilm disruption assay (crystal violet staining), E. coli. The format is cell-based, Escherichia coli. To be noted: 4× MIC (64 μM), 24 h treatment. As for the experimental part: as §2
Assay [12] relates to cytoplasmic membrane of S. aureus. The assay is described as follows: Cytoplasmic membrane permeability (diSC3-5 dye release) assay. The assay is classed as cell-based, Staphylococcus aureus. The settings on record: 1× and 2× MIC. As for the experimental part: Bacterial cytoplasmic membrane permeability was determined using membrane potential-sensitive dye diSC3–5 (3,3′-dipropylthiadicarbocyanine iodide), which penetrates inside bacterial cells depending on the membrane potential gradient of the cytoplasmic membrane. The procedure of this assay follows the method previously described by Wu et al. with slight modifications. Bacteria were grown in MHB to mid-log phase by incubating with shaking at 37 °C for […]. Following incubation, bacteria were washed with 5 mM HEPES containing 20 mM glucose at pH 7.2 and resuspended in the same buffer to an OD600 0.05–0.06 (yielding a final concentration of 10^7 CFU/mL). The dye diSC3–5 was added at 4 μM to the bacterial suspension. The suspensions were incubated at room temperature for 1 h in darkness for maximum dye take-up by the bacterial cells. 100 mM KCl was then added to balance the K^+ outside and inside the bacterial cell. 100 μL of bacterial suspension was added in a 96-well microtiter plate and with equal volume of antimicrobial compounds. DMSO (10%) was set as a positive control while dye and only bacterial cells were set as negative control. Fluorescence due to release of dye was measured with a luminescence spectrophotometer at 3 min intervals at an excitation wavelength of 621 nm and an emission wavelength of 670 nm.

The test system of another assay is S. aureus. Kind of assay: Time-kill kinetic / cell viability count assay. The assay is classed as cell-based, Staphylococcus aureus. To be noted: 1× and 2× MIC. The protocol: The number of viable cells was confirmed by serially diluting aliquots of bacteria in D/E neutralizing broth (Remel, Lenexa, KS, USA) and plating onto Tryptic Soy Agar (Oxoid, Basingstoke, UK) containing phosphatidylcholine (0.7 g/L) and Tween 80 (5 mL/L). The plates were incubated at 37 °C overnight and numbers of live bacteria were enumerated and expressed as CFU/mL. The experiment was performed in triplicate.

[13] abbreviates: no antibacterial activity at the highest concentration tested (250 μM) ref 43.
[14] abbreviates: any tested concentration (1×, 2× and 4× MIC).
Where [15] appears, read: previously reported values ref 51.

As for `CCCCCCCCS(=O)(=O)Nc1ccccc1C(=O)C(=O)NCCC[N+](C)(C)C` [Compound 4a], the “MIC against S. aureus” value with S. aureus (SA38) [1] (previously synthesised N-sulfonylphenylglyoxamide iodide salts ref 43) was 250 µM. In the assay on P. aeruginosa (PA01) [2] (setting [13]), the “MIC against P. aeruginosa” value is over 250 µM. Also, the “MIC against E. coli” value in the assay with E. coli (K12) [3] (setting [13]) was over 250 µM.

In the case of `CCCCCCCCS(=O)(=O)Nc1ccc(-c2ccc3ccccc3c2)cc1C(=O)C(=O)NCCC[N+](C)(C)C.[I-]` [Compound 15d, N,N,N-Trimethyl-3-(2-(5-(naphthalen-2-yl)-2-(octylsulfonamido)phenyl)-2-oxoacetamido)propan-1-aminium iodide], the MIC (in general, the smallest concentration in the dilution series that meets the test's criterion for growth inhibition) in the assay on S. aureus (SA38) [4] turned out to be 8 µM; with P. aeruginosa (PA01) [5], 250 µM; with E. coli (K12) [6] it was 63 µM. Moreover, the “disruption of preformed S. aureus biofilms” value in [7] (setting [14]) was “failed to disrupt any”. Moreover, in assay [8] (zwitterionic POPC tBLMs, concentrations as low as 100 nM), the “shift in membrane conductance” value came to 2.5 ×. Also, the figures for the “changes of membrane conduction” value in assay [8] and in assay [9] were “more pronounced” and “lower”, respectively. Moreover, the membrane capacitance entry in assay [8] (zwitterionic tBLMs, saturating concentrations) was “large increase”; in assay [9] (negatively charged tBLMs, saturating concentrations), “large increase”. Moreover, the “changes in membrane conductance” value in assay [9] (30% POPG membranes, concentrations <1 μM) is reported as “notably absent”. Besides, the IC50 (usually the midpoint of a concentration-inhibition curve) in assay [10] was determined as 112 µM.

In the case of `CCCCCCCCS(=O)(=O)Nc1ccc(-c2ccccc2)cc1C(=O)C(=O)NCCCNC(=N)N.Cl` [Compound 22a, N-(3-Guanidinopropyl)-2-(4-(octylsulfonamido)-[1,1’-biphenyl]-3-yl)-2-oxoacetamide hydrochloride], the MIC turned out to be 8 µM against S. aureus (SA38) [4], 63 µM against P. aeruginosa (PA01) [5] and 63 µM with E. coli (K12) [6]. Also, the “disruption of preformed S. aureus biofilms” value in [7] (setting [14]) is given as “failed to disrupt any”. The entries for the “changes of membrane conduction” value in assay [8] and in assay [9] were “more pronounced” and “lower”, respectively. For the same compound, in [10], the IC50 was 75.5 µM.

As to `CCCCCCCCS(=O)(=O)Nc1ccc(-c2ccc(F)cc2)cc1C(=O)C(=O)NCCCNC(=N)N.Cl` [Compound 22b, 2-(4’-Fluoro-4-(octylsulfonamido)-[1,1’-biphenyl]-3-yl)-N-(3-guanidinopropyl)-2-oxoacetamide hydrochloride], the MIC came to 8 µM with S. aureus (SA38) [4], 63 µM with P. aeruginosa (PA01) [5] and 16 µM with E. coli (K12) [6]. Moreover, in assay [7] (4× MIC (32 μM)), the “disruption of preformed S. aureus biofilms” value was determined as 39%. Besides, in [11], the “disruption of preformed E. coli biofilm” value is reported as “insignificant amount”. The “increase in diSC3-5 fluorescence intensity (cytoplasmic membrane disruption)” value in assay [12] is listed as “modest”. Moreover, the “reduction in bacterial numbers” value in the assay with S. aureus is given as “less than 1 log”. Moreover, the IC50 in assay [10] stood at 76 µM.

In the case of `CCCCCCCCS(=O)(=O)Nc1ccc(-c2ccc3ccccc3c2)cc1C(=O)C(=O)NCCCNC(=N)N.Cl` [Compound 22d, N-(3-Guanidinopropyl)-2-(5-(naphthalen-2-yl)-2-(octylsulfonamido)phenyl)-2-oxoacetamide hydrochloride], the MIC in the assay with S. aureus (SA38) [4] was 8 µM; in the assay on P. aeruginosa (PA01) [5] it was over 250 µM; against E. coli (K12) [6], over 250 µM. Further, in assay [7] (4× MIC (32 μM)), the “disruption of preformed S. aureus biofilms” value came out at 50%. Also, the “increase in diSC3-5 fluorescence intensity (cytoplasmic membrane disruption)” value in assay [12] was “modest”. Besides, in the assay on S. aureus, the “reduction in bacterial numbers” value was “less than 1 log”. Moreover, the IC50 in assay [10] is 49.5 µM.

For pexiganan [pexiganan (MSI-78)], in the assay with S. aureus (SA38) [1] (setting [15]), the “MIC S. aureus” value is 3.2 to 6.5 µM. Also, the “MIC P. aeruginosa” value in the assay on P. aeruginosa (PA01) [2] (setting [15]) was 3.2 to 6.5 µM. Moreover, the “MIC E. coli” value in the assay with E. coli (K12) [3] (setting [15]) is 3.2 to 6.5 µM.
